Results published in patent US9943599B2, “Therapeutic applications of calcium electroporation to effectively induce tumor necrosis” (Herlev Hospital, priority 2011, dated 2018).

How the values were obtained:
[1] = test system: tumor on the heel joint; test: Case study, calcium electroporation of canine tumor; type: in vivo, dog; conditions: 168 mM calcium chloride, 50% of tumor volume, 11 days after treatment
Method: A seven year old Danish Pointer dog with a tumor on the heel joint was treated with calcium electroporation. The tumor was injected with 168 mM calcium chloride solution in a total volume equivalent to 50% of the tumor volume calculated as ab^2n/6, where “a” is the largest diameter of the tumor and “b” is the largest diameter perpendicular to “a”. The calcium chloride solution was injected throughout the tumor to secure an even distribution of calcium in the tumor. After the calcium injection the tumor was electroporated (8 pulses of […] at 1.0 kV/cm and 1 Hz) using a needle electrode and a square wave electroporator (CLINIPORATOR®, IGEA, Modena, Italy). The tumor was photographed before and after the treatment.

[2] = test system: SW780 (human bladder cancer) tumors; test: Fraction of necrosis after calcium electroporation, SW780 tumors; type: in vivo, NMRI-Foxn1^nu mice
Method: (§1) LPB, a murine sarcoma cell line, B16, a murine malignant melanoma cell line, MDA-MB231, human a breast cancer cell line, HT29, a human colon cancer cell line, and SW780, a human bladder cancer cell line were used for the in vivo experiment. The cells were tested by rapid MAP27 panel (Taconic, Hudson N.Y.) before use without signs of infection. 2×10^5 cells (B16), 8×10^5 cells (LPB), 2.5×10^6 cells (MDA-MB231), and 5×10^6 cells (HT29 and SW780) in 100 μl PBS were injected subcutaneously in the flank of NMRI-Foxn1^nu mice (Harlan, Indianapolis, Ind.) that were 9-11 weeks old. Mice were randomised at a tumor volume above 85 mm^3 and tumors were treated with injection of isotonic calcium-chloride solution (168 mM CaCI2) and electroporation (8 pulses of 1.0 kv/cm for 100 μs and a frequency of 1 Hz) using a 6 mm plate electrode and a square wave electroporator (CLINIPORATOR®, IGEA, Modena, Italy). Tumor volume was calculated as ab^2n/6, where a is the largest diameter and b is the largest diameter perpendicular to a. The injected volume was half of the tumor volume. […] The fraction of necrosis within the tumor was estimated from HE-sections by stereological point counting using a light microscope, evaluated by a pathologist, blinded with respect to treatment status.
(§2) The difference in fraction of necrosis at different time after treatment was assessed using student's t-test.

[3] = test system: B16 (murine melanoma) tumors; test: Fraction of necrosis after calcium electroporation, B16 tumors; type: in vivo, NMRI-Foxn1^nu mice; conditions: 168 mM CaCl2, half tumor volume, first days after treatment
Method: as §1, §2

Compound: [Ca+2].[Cl-].[Cl-] [calcium chloride]
- necrosis of tumor [1]: clinical signs of necrosis
- tumor size (photos) [1]: reduced in size
- fraction of necrosis in tumors, course ([2]; 168 mM CaCl2, half tumor volume, electroporation, first days after treatment): progressive necrosis
- tumor re-growth ([2]; 6 days after the treatment): re-growth
- fraction of necrosis in tumors, course [3]: progressive necrosis
